# Assays:
# Assay in all cases: KINOMEscan
# Assay type in all cases: binding
# [1] = target: T1, AURKA (Homo sapiens, UniProt O14965); conditions: 1 uM
# T1 construct: purchased Ambit KINOMEscan (DiscoverX)
# How it was run: (§1)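 Compounds were each tested at a single concentration of 1 μM in a binding-based kinase panel.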
# [2] = target: T2, RPS6KA4(Kin.Dom.2-C-terminal) (Homo sapiens, UniProt O75676); conditions: 1 uM
# T2 construct: RPS6KA4(Kin.Dom.2-C-terminal); purchased Ambit KINOMEscan (DiscoverX)
# How it was run: as §1
# [3] = target: T3, MUSK (Homo sapiens, UniProt O15146); conditions: 1 uM
# T3 construct: purchased Ambit KINOMEscan (DiscoverX)
# How it was run: as §1
# [4] = target: T4, EPHA5 (Homo sapiens, UniProt P54756); conditions: EPHA5, 1 uM
# T4 construct: purchased Ambit KINOMEscan (DiscoverX)
# How it was run: as §1
# [5] = target: T5, LYN (Homo sapiens, UniProt P07948); conditions: 1 uM
# T5 construct: purchased Ambit KINOMEscan (DiscoverX)
# How it was run: as §1
# [6] = target: T6, TYK2(JH2domain-pseudokinase) (Homo sapiens, UniProt P29597); conditions: 1 uM
# T6 construct: TYK2(JH2domain-pseudokinase); purchased Ambit KINOMEscan (DiscoverX)
# How it was run: as §1
# [7] = target: T7, IKK-beta (Homo sapiens, UniProt O14920); conditions: 1 uM
# T7 construct: purchased Ambit KINOMEscan (DiscoverX)
# How it was run: as §1
# [8] = target: T8, EGFR(G719S) (Homo sapiens, UniProt P00533, G719S); conditions: 1 uM
# T8 construct: purchased Ambit KINOMEscan (DiscoverX)
# How it was run: as §1
# [9] = target: T9, CSNK1G1 (Homo sapiens, UniProt Q9HCP0); conditions: CSNK1G1, 1 uM
# T9 construct: purchased Ambit KINOMEscan (DiscoverX)
# How it was run: as §1
# [10] = target: T10, MAP4K3 (Homo sapiens, UniProt Q8IVH8); conditions: MAP4K3, 1 uM
# T10 construct: purchased Ambit KINOMEscan (DiscoverX)
# How it was run: as §1
# [11] = target: T11, TNIK (Homo sapiens, UniProt Q9UKE5); conditions: 1 uM
# T11 construct: purchased Ambit KINOMEscan (DiscoverX)
# How it was run: as §1
# [12] = target: T12, PIK3C2G (Homo sapiens, UniProt O75747); conditions: 1 uM
# T12 construct: purchased Ambit KINOMEscan (DiscoverX)
# How it was run: as §1
# [13] = target: T13, CDK11 (Homo sapiens, UniProt Q9BWU1); conditions: CDK11, 1 uM
# T13 construct: purchased Ambit KINOMEscan (DiscoverX)
# How it was run: as §1
# [14] = target: T14, ERBB2 (Homo sapiens, UniProt P04626); conditions: ERBB2, 1 uM
# T14 construct: purchased Ambit KINOMEscan (DiscoverX)
# How it was run: as §1
# [15] = target: T15, EGFR(G719C) (Homo sapiens, UniProt P00533, G719C); conditions: 1 uM
# T15 construct: purchased Ambit KINOMEscan (DiscoverX)
# How it was run: as §1
# [16] = target: T16, CDKL5 (Homo sapiens, UniProt O76039); conditions: CDKL5, 1 uM
# T16 construct: purchased Ambit KINOMEscan (DiscoverX)
# How it was run: as §1
# [17] = target: T17, PCTK2 (Homo sapiens, UniProt Q00537); conditions: PCTK2, 1 uM
# T17 construct: purchased Ambit KINOMEscan (DiscoverX)
# How it was run: as §1
# [18] = target: T18, STK16 (Homo sapiens, UniProt O75716); conditions: STK16, 1 uM
# T18 construct: purchased Ambit KINOMEscan (DiscoverX)
# How it was run: as §1
# [19] = target: T19, BRAF(V600E) (Homo sapiens, UniProt P15056, V600E); conditions: 1 uM
# T19 construct: purchased Ambit KINOMEscan (DiscoverX)
# How it was run: as §1
# [20] = target: T20, MEK6 (Homo sapiens, UniProt P52564); conditions: MEK6, 1 uM
# T20 construct: purchased Ambit KINOMEscan (DiscoverX)
# How it was run: as §1
# [21] = target: T21, YES (Homo sapiens, UniProt P07947); conditions: 1 uM
# T21 construct: purchased Ambit KINOMEscan (DiscoverX)
# How it was run: as §1
# [22] = target: T22, DAPK2 (Homo sapiens, UniProt Q9UIK4); conditions: DAPK2, 1 uM
# T22 construct: purchased Ambit KINOMEscan (DiscoverX)
# How it was run: as §1
# [23] = target: T23, MAST1 (Homo sapiens, UniProt Q9Y2H9); conditions: MAST1, 1 uM
# T23 construct: purchased Ambit KINOMEscan (DiscoverX)
# How it was run: as §1
# [24] = target: T24, EPHA4 (Homo sapiens, UniProt P54764); conditions: EPHA4, 1 uM
# T24 construct: purchased Ambit KINOMEscan (DiscoverX)
# How it was run: as §1
# [25] = target: T25, GSK3B (Homo sapiens, UniProt P49841); conditions: for % binding compared to no inhibitor control: GSK3B, 1 uM
# T25 construct: purchased Ambit KINOMEscan (DiscoverX)
# How it was run: as §1
# [26] = target: T26, TAO1 (Homo sapiens, UniProt Q9UL54); conditions: TAO1, 1 uM
# T26 construct: purchased Ambit KINOMEscan (DiscoverX)
# How it was run: as §1
# [27] = target: T27, TAK1 (Homo sapiens, UniProt O43318); conditions: TAK1, 1 uM
# T27 construct: purchased Ambit KINOMEscan (DiscoverX)
# How it was run: as §1
# [28] = target: T28, SRPK1 (Homo sapiens, UniProt Q96SB4); conditions: SRPK1, 1 uM
# T28 construct: purchased Ambit KINOMEscan (DiscoverX)
# How it was run: as §1
# [29] = target: T29, MRCKB (Homo sapiens, UniProt Q9Y5S2); conditions: 1 uM
# T29 construct: purchased Ambit KINOMEscan (DiscoverX)
# How it was run: as §1
# [30] = target: T30, CLK4 (Homo sapiens, UniProt Q9HAZ1); conditions: CLK4, 1 uM
# T30 construct: purchased Ambit KINOMEscan (DiscoverX)
# How it was run: as §1
# [31] = target: T31, PLK4 (Homo sapiens, UniProt O00444); conditions: PLK4, 1 uM
# T31 construct: purchased Ambit KINOMEscan (DiscoverX)
# How it was run: as §1
# [32] = target: T32, GAK (Homo sapiens, UniProt O14976); conditions: 1 uM
# T32 construct: purchased Ambit KINOMEscan (DiscoverX)
# How it was run: as §1
# [33] = target: T33, DYRK1B (Homo sapiens, UniProt Q9Y463); conditions: 1 uM
# T33 construct: purchased Ambit KINOMEscan (DiscoverX)
# How it was run: as §1
# [34] = target: T34, PIM2 (Homo sapiens, UniProt Q9P1W9); conditions: PIM2, 1 uM
# T34 construct: purchased Ambit KINOMEscan (DiscoverX)
# How it was run: as §1
# [35] = target: T35, CDKL2 (Homo sapiens, UniProt Q92772); conditions: CDKL2, 1 uM
# T35 construct: purchased Ambit KINOMEscan (DiscoverX)
# How it was run: as §1
# [36] = target: T36, HIPK4 (Homo sapiens, UniProt Q8NE63); conditions: HIPK4, 1 uM
# T36 construct: purchased Ambit KINOMEscan (DiscoverX)
# How it was run: as §1
# [37] = target: T37, FLT3(D835H) (Homo sapiens, UniProt P36888, D835H); conditions: 1 uM
# T37 construct: purchased Ambit KINOMEscan (DiscoverX)
# How it was run: as §1
# [38] = target: T38, INSRR (Homo sapiens, UniProt P14616); conditions: 1 uM
# T38 construct: purchased Ambit KINOMEscan (DiscoverX)
# How it was run: as §1
# [39] = target: T39, CAMK1 (Homo sapiens, UniProt Q14012); conditions: CAMK1, 1 uM
# T39 construct: purchased Ambit KINOMEscan (DiscoverX)
# How it was run: as §1
# T25 sequence (P49841 whole entry): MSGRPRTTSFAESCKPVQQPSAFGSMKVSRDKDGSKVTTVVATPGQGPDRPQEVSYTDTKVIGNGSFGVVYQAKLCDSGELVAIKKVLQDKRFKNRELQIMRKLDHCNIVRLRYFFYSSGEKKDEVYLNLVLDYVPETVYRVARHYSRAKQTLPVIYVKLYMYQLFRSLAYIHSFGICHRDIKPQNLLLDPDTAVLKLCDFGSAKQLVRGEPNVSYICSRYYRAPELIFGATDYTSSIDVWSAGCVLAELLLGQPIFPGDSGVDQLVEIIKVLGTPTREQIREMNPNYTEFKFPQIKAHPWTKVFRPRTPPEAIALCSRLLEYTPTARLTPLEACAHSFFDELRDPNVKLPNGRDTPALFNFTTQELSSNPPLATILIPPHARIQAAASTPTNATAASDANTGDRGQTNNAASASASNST
# T30 sequence (Q9HAZ1 whole entry): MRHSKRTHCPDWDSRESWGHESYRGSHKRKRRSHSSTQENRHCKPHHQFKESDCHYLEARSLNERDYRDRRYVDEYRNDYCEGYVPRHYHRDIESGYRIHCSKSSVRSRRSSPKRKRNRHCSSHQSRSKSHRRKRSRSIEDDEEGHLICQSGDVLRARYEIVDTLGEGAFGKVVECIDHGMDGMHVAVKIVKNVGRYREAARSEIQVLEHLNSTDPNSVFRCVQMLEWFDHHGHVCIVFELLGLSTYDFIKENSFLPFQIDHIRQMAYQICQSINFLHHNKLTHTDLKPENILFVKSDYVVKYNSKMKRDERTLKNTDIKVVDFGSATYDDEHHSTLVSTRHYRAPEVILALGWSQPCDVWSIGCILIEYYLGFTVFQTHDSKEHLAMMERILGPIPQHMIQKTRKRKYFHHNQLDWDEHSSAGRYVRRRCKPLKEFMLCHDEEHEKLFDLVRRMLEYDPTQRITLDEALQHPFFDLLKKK
# T17 sequence (Q00537 whole entry): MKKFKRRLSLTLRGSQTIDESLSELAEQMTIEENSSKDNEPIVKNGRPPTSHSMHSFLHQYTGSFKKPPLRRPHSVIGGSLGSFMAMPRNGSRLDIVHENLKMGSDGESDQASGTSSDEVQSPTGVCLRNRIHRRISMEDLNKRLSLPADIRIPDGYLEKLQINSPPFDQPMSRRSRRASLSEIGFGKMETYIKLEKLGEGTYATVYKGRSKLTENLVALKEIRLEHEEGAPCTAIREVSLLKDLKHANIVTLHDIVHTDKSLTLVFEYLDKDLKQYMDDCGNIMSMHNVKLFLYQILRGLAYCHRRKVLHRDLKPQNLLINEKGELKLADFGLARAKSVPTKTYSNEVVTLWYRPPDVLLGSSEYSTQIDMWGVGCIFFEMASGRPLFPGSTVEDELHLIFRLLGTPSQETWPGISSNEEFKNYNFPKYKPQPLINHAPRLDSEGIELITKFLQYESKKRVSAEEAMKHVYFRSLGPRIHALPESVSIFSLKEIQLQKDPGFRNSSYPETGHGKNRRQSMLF
# T12 sequence (O75747 whole entry): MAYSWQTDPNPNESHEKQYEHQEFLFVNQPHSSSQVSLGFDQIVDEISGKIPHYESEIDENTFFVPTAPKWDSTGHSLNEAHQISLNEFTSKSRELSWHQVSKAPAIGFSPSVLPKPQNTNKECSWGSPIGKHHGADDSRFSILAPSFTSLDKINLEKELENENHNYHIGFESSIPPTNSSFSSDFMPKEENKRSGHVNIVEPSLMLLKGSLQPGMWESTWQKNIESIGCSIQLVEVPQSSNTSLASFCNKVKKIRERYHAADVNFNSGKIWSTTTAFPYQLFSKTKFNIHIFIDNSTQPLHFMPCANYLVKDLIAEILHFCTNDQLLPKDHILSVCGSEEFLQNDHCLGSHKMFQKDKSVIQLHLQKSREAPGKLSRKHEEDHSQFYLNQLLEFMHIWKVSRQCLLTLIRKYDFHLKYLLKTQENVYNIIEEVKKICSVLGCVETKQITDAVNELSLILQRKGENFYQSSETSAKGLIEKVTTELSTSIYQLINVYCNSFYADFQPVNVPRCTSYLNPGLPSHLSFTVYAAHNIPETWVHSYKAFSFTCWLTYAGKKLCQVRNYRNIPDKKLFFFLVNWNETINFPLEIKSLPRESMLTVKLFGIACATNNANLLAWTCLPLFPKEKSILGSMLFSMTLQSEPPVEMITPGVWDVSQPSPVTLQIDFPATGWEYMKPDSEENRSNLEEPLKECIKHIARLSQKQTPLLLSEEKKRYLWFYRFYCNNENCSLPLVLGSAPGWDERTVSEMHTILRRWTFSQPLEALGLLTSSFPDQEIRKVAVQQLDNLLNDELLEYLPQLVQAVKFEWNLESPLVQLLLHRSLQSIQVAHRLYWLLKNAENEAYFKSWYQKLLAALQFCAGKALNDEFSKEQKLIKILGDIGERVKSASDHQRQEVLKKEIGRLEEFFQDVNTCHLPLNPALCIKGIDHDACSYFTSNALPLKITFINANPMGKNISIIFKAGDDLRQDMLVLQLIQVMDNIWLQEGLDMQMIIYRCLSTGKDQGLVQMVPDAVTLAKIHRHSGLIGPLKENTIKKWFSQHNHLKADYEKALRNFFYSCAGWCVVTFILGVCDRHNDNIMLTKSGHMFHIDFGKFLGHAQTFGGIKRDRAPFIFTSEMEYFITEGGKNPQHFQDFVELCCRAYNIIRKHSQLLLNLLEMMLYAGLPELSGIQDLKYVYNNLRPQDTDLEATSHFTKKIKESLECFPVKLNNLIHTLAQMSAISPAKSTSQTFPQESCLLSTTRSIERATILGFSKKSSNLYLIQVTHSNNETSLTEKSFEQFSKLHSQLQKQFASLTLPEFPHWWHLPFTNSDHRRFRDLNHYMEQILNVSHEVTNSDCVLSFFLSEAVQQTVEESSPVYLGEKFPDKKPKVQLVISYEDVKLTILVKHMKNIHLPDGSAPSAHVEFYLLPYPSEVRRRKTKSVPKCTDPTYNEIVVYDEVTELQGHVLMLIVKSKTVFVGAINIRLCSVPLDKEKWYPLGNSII
# T36 sequence (Q8NE63 whole entry): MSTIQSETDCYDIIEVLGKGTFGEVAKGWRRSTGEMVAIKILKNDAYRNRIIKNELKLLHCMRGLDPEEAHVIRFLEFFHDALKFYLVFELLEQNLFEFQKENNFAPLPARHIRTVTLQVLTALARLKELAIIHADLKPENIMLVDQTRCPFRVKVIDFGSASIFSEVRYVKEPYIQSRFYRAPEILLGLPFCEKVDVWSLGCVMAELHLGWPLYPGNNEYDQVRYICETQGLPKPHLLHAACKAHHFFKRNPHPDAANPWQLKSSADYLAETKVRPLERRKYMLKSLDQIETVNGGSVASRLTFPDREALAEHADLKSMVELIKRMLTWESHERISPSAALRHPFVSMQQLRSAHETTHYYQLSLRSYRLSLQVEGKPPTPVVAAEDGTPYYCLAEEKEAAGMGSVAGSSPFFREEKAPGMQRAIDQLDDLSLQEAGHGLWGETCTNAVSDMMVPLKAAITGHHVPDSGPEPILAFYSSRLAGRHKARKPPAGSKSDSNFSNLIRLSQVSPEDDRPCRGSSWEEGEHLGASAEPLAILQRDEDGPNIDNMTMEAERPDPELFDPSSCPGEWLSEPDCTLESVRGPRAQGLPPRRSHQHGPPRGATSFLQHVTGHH
# T14 sequence (P04626 23-1255): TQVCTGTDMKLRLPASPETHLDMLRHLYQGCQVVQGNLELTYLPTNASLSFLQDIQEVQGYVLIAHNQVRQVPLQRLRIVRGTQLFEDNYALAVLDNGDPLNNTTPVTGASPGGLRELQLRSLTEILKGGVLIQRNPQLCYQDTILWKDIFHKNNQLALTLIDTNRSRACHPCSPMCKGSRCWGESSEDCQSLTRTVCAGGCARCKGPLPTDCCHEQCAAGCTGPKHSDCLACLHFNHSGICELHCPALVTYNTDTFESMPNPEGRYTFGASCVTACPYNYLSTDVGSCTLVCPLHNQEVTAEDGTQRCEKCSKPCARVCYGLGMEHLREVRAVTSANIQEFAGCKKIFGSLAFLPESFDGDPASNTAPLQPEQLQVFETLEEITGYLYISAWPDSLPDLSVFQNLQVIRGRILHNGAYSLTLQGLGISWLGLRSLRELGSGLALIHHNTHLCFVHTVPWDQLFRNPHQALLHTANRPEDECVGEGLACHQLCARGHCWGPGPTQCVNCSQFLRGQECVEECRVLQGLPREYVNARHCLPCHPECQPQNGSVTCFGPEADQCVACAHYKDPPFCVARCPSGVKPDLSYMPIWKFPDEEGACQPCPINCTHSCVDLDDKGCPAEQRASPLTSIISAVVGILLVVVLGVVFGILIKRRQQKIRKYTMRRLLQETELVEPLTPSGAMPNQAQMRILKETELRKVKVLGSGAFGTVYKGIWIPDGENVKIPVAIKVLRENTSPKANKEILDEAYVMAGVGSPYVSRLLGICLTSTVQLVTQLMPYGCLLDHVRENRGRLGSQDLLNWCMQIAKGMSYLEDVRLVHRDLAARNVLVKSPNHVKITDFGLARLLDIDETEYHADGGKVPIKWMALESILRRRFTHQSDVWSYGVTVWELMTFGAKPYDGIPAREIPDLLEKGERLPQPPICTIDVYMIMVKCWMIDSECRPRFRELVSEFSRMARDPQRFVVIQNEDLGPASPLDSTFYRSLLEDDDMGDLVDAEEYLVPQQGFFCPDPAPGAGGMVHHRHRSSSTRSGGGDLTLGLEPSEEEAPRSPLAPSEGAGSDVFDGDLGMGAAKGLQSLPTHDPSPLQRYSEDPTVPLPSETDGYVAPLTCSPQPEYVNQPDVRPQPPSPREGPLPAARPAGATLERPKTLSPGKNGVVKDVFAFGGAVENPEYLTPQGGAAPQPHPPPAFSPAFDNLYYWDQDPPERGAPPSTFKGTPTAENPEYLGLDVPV
# T34 sequence (Q9P1W9 whole entry): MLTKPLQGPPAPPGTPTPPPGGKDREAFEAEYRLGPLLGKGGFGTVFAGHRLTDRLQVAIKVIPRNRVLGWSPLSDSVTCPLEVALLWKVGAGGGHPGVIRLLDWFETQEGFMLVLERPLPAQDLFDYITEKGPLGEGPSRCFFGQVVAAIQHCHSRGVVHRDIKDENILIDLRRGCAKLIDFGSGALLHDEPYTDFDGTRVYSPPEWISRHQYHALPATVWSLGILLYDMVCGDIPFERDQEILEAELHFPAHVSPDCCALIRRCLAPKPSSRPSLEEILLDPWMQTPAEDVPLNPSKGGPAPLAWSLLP
Structure (SMILES),% binding compared to no inhibitor control [1],% binding compared to no inhibitor control [2],% binding compared to no inhibitor control [3],% binding compared to no inhibitor control [4],% binding compared to no inhibitor control [5],% binding compared to no inhibitor control [6],% binding compared to no inhibitor control [7],% binding compared to no inhibitor control [8],% binding compared to no inhibitor control [9],% binding compared to no inhibitor control [10],% binding compared to no inhibitor control [11],% binding compared to no inhibitor control [12],% binding compared to no inhibitor control [13],% binding compared to no inhibitor control [14],% binding compared to no inhibitor control [15],% binding compared to no inhibitor control [16],% binding compared to no inhibitor control [17],% binding compared to no inhibitor control [18],% binding compared to no inhibitor control [19],% binding compared to no inhibitor control [20],further results
"COc1ccc(-c2cc3nccn3c(Nc3ncccc3C(N)=O)n2)cc1OC.Cl.Cl [BAY61-3606, 2-[7-(3,4-dimethoxyphenyl)-imidazo [1,2-c]pyrimidin-5-ylamino] nicotinamide dihydrochloride, reference compound]",91%,60%,76%,77%,100%,9.2%,37%,71%,84%,97%,69%,23%,100%,93%,68%,60%,100%,30%,84%,40%,"% binding compared to no inhibitor control [21]: 96%; % binding compared to no inhibitor control [22]: 66%; % binding compared to no inhibitor control [23]: 52%; % binding compared to no inhibitor control [24]: 91%; % binding compared to no inhibitor control [25]: 39%; % inhibition ATP binding ([25]; GSK3β, KINOMEscan, 1 μM): 61%; % binding compared to no inhibitor control [26]: 100%; % binding compared to no inhibitor control [27]: 63%; % binding compared to no inhibitor control [28]: 88%; % binding compared to no inhibitor control [29]: 99%; % binding compared to no inhibitor control [30]: 11%; % binding compared to no inhibitor control [31]: 35%; % binding compared to no inhibitor control [32]: 30%; % binding compared to no inhibitor control [33]: 81%; % binding compared to no inhibitor control [34]: 87%; % binding compared to no inhibitor control [35]: 78%; % binding compared to no inhibitor control [36]: 29%; % binding compared to no inhibitor control [37]: 7.9%; % binding compared to no inhibitor control [38]: 80%; % binding compared to no inhibitor control [39]: 62%"
COc1ccccc1Nc1nc(-c2ccc(OC)c(OC)c2)cc2nccn12 [BAY derivative 6],87%,86%,100%,100%,96%,37%,89%,100%,94%,100%,98%,100%,100%,71%,100%,100%,100%,47%,100%,97%,% binding compared to no inhibitor control [21]: 57%; % binding compared to no inhibitor control [22]: 100%; % binding compared to no inhibitor control [23]: 74%; % binding compared to no inhibitor control [24]: 92%; % binding compared to no inhibitor control [25]: 100%; % binding compared to no inhibitor control [26]: 96%; % binding compared to no inhibitor control [27]: 96%; % binding compared to no inhibitor control [28]: 75%; % binding compared to no inhibitor control [29]: 100%; % binding compared to no inhibitor control [30]: 100%; % binding compared to no inhibitor control [31]: 100%; % binding compared to no inhibitor control [32]: 43%; % binding compared to no inhibitor control [33]: 57%; % binding compared to no inhibitor control [34]: 91%; % binding compared to no inhibitor control [35]: 100%; % binding compared to no inhibitor control [36]: 98%; % binding compared to no inhibitor control [37]: 42%; % binding compared to no inhibitor control [38]: 91%; % binding compared to no inhibitor control [39]: 100%

# Source: PMC3399817 (PLoS ONE, 2012)
